Values after ≈ are worked out from the molar mass of the structure shown. Like-named read-outs stand apart in the source and are kept apart here.
Legend:
Type in all cases: cell-based
[1] = tested on: Candida tropicalis NRRL-Y-112; experiment: In vitro antifungal MIC, Candida tropicalis NRRL-Y-112; conditions: Candida tropicalis NRRL-Y-112, 35°-37° C., 48 hours
Procedure: (§1) The in vitro antifungal activity of the compounds of the present invention against a variety of fungiwas determined as follow: Test medium was prepared by dissolving first 5 g of dextrose and then 6.7 g of Bacto Yeast Nitrogen Base® (commercially available from Difco Laboratories) in 100 mL of distilled water. The solution was filter-sterilized and diluted 1:10 with 0.01M pH 8.0 phosphate buffer solution, and the final pH of the medium adjusted to about pH 7.0 when necessary with either 0.1N hydrochloric acid solution of 0.1N sodium hydroxide solution. […] These concentrated stock solutions were diluted to a concentration of 200 μg/mL (twice the highest concentration desired for testing) with the test medium. Amphotericin B, similarly prepared, was used as a reference antifungal agent.
(§2) The test organisms were then inoculated into test tubes containing approximately 3 to 10 mL of test medium and the test tubes incubated overnight at 37° C. A sample of each overnight culture was placed in a test tube and diluted using the test medium until a reading of 95% transmittance was obtained in a conventional UV/visible spectrophotometer set to 560 nm. The adjusted cultures were then diluted 1:50 with test medium. These diluted cultures served as the inocula for the assays which follow and were used within 15 minutes of preparation.
(§3) Next, 2-fold serial dilutions of each test compound in test medium were prepared in a 96-well microtiter plate using calibrated microdiluters attached to an automatic (hand-held) diluter (available from Dynatech Laboratories).
(§4) Using sterile calibrated droppers or a multi-point dispenser, the diluted inoculum suspension was added to each of the wells in the plate. When inoculation was complete, the microtiter tray was covered with a plastic plate sealer to minimize evaporation. After the plate had been sealed, a hole was made above each well with a sterile 26-gauge syringe needle in order to allow gas exchange. If plate sealers were not available, the microtiter trays were stacked in groups of five or less with an empty tray on top. The microtiter trays were then incubated in a humidified chamber at 35°-37° C. for 48 hours or until growth was visible in the growth control wells.
(§5) The minimum inhibitory concentration (MIC) was defined as the lowest concentration of test compound yielding no growth, a slight haze or sparsely isolated colonies on the inoculum spot as compared to the growth control containing no test compound.

[2] = tested on: Torulopsis glabrata ATCC 15545; experiment: In vitro antifungal MIC, Torulopsis glabrata ATCC 15545; conditions: Torulopsis glabrata ATCC 15545, 35°-37° C., 48 hours
Procedure: as §1, §2, §3, §4, §5

[3] = tested on: Aspergillus niger ATCC 16404; experiment: In vitro antifungal MIC, Aspergillus niger ATCC 16404; conditions: Aspergillus niger ATCC 16404, 35°-37° C., 48 hours
Procedure: as §1, §2, §3, §4, §5

[4] = tested on: Candida albicans ATCC 10231; experiment: In vitro antifungal MIC, Candida albicans ATCC 10231; conditions: Candida albicans ATCC 10231, 35°-37° C., 48 hours
Procedure: as §1, §2, §3, §4, §5

[5] = tested on: Candida albicans ATCC 62376; experiment: In vitro antifungal MIC, Candida albicans ATCC 62376; conditions: Candida albicans ATCC 62376, 35°-37° C., 48 hours
Procedure: as §1, §2, §3, §4, §5

Candida kefyr ATCC 28838 = experiment: In vitro antifungal MIC, Candida kefyr ATCC 28838; conditions: Candida kefyr ATCC 28838, 35°-37° C., 48 hours
Procedure: as §1, §2, §3, §4, §5

Candida albicans CCH 442 = experiment: In vitro antifungal MIC, Candida albicans CCH 442; conditions: Candida albicans CCH 442, 35°-37° C., 48 hours
Procedure: as §1, §2, §3, §4, §5

Candida albicans 579A = experiment: In vitro antifungal MIC, Candida albicans 579A; conditions: Candida albicans 579A, 35°-37° C., 48 hours
Procedure: as §1, §2, §3, §4, §5

[6] = tested on: Cryptococcus albidus ATCC 34140; experiment: In vitro antifungal MIC, Cryptococcus albidus ATCC 34140; conditions: Cryptococcus albidus ATCC 34140, 35°-37° C., 48 hours
Procedure: as §1, §2, §3, §4, §5

[7] = tested on: Candida albicans ATCC 38247; experiment: In vitro antifungal MIC, Candida albicans ATCC 38247; conditions: Candida albicans ATCC 38247, 35°-37° C., 48 hours
Procedure: as §1, §2, §3, §4, §5

[8] = Nakaseomyces glabratus, ATCC15545, read-out: MIC
[9] = Kluyveromyces marxianus, ATCC28838, read-out: MIC
[10] = Naganishia albida, ATCC34140, read-out: MIC

Molecule	MIC ([1]; NRRLY112, read-out: MIC) [µg/mL]	MIC [2, 8] [µg/mL]	MIC ([3]; ATCC16404, read-out: MIC) [µg/mL]	MIC ([4]; ATCC10231, read-out: MIC) [µg/mL]	MIC ([5]; ATCC62376, read-out: MIC) [µg/mL]	MIC (Candida kefyr ATCC 28838; [9]) [µg/mL]	MIC (Candida albicans CCH 442; CCH442, read-out: MIC) [µg/mL]	MIC (Candida albicans 579A; read-out: MIC) [µg/mL]	MIC [6, 10] [µg/mL]	MIC ([7]; ATCC38247, read-out: MIC) [µg/mL]	MIC [1] [µg/mL]	MIC [7] [µg/mL]	MIC [2] [µg/mL]	MIC [3] [µg/mL]	MIC [4] [µg/mL]	MIC [5] [µg/mL]	MIC (Candida kefyr ATCC 28838) [µg/mL]	MIC (Candida albicans CCH 442) [µg/mL]	MIC (Candida albicans 579A) [µg/mL]	MIC [6] [µg/mL]
CN1Sc2ccccc2[S+]1[O-] (stereo not shown) [Example 2, 2-methyl-1,3,2-benzodithiazole-1-oxide]	1.56 (≈ 8.42 µM)	0.78 (≈ 4.21 µM)	3.12 (≈ 16.8 µM)	1.56 (≈ 8.42 µM)	0.78 (≈ 4.21 µM)	1.56 (≈ 8.42 µM)	1.56 (≈ 8.42 µM)	1.56 (≈ 8.42 µM)	3.12 (≈ 16.8 µM)											
CN(C)CCCN1Sc2ccccc2[S+]1[O-] (stereo not shown) [Example 23, 2-(3-(N,N-dimethylamino)-n-propyl)-1,3,2-benzodithiazole-1-oxide]	50 (≈ 195 µM)	50 (≈ 195 µM)	12.5 (≈ 48.8 µM)	50 (≈ 195 µM)	50 (≈ 195 µM)	3.12 (≈ 12.2 µM)	50 (≈ 195 µM)	50 (≈ 195 µM)	12.5 (≈ 48.8 µM)	12.5 (≈ 48.8 µM)										
[O-][S+]1c2ccccc2SN1CCN1CCCCC1 (stereo not shown) [Example 24, 2-(2-(1-piperidinyl)ethyl)-1,3,2-benzodithiazole-1-oxide]	25 (≈ 88.5 µM)	12.5 (≈ 44.3 µM)	3.12 (≈ 11 µM)	25 (≈ 88.5 µM)	25 (≈ 88.5 µM)	0.78 (≈ 2.76 µM)	25 (≈ 88.5 µM)	25 (≈ 88.5 µM)	12.5 (≈ 44.3 µM)	12.5 (≈ 44.3 µM)										
CCCCCCCCN1Sc2ccccc2[S+]1[O-] (stereo not shown) [Example 6, 2-n-octyl-1,3,2-benzodithiazole-1-oxide]	0.2 (≈ 0.706 µM)	0.2 (≈ 0.706 µM)	0.2 (≈ 0.706 µM)	0.2 (≈ 0.706 µM)	0.1 (≈ 0.353 µM)	0.1 (≈ 0.353 µM)	0.2 (≈ 0.706 µM)	0.2 (≈ 0.706 µM)	3.12 (≈ 11 µM)	0.39 (≈ 1.38 µM)										
CCCCCCCCCCN1Sc2ccccc2[S+]1[O-] (stereo not shown) [Example 8, 2-n-decyl-1,3,2-benzodithiazole-1-oxide]	3.12 (≈ 10 µM)	3.12 (≈ 10 µM)	1.56 (≈ 5.01 µM)	1.56 (≈ 5.01 µM)	6.25 (≈ 20.1 µM)	1.56 (≈ 5.01 µM)	6.25 (≈ 20.1 µM)	6.25 (≈ 20.1 µM)	12.5 (≈ 40.1 µM)	6.25 (≈ 20.1 µM)										
CCCCCCCCCN1Sc2ccccc2[S+]1[O-] (stereo not shown) [Example 7, 2-n-nonyl-1,3,2-benzodithiazole-1-oxide]	1.56 (≈ 5.24 µM)	1.56 (≈ 5.24 µM)	0.78 (≈ 2.62 µM)	1.56 (≈ 5.24 µM)	1.56 (≈ 5.24 µM)	0.78 (≈ 2.62 µM)	1.56 (≈ 5.24 µM)	0.78 (≈ 2.62 µM)	6.25 (≈ 21 µM)	1.56 (≈ 5.24 µM)										
CC(C)(C)CC(C)(C)N1Sc2ccccc2[S+]1[O-] (stereo not shown) [Example 16, 2-(1,1,3,3-tetramethylbutyl)-1,3,2-benzodithiazole-1-oxide]	12.5 (≈ 44.1 µM)	6.25 (≈ 22 µM)	3.12 (≈ 11 µM)	6.25 (≈ 22 µM)	6.25 (≈ 22 µM)	0.78 (≈ 2.75 µM)	1.56 (≈ 5.5 µM)	3.12 (≈ 11 µM)	6.25 (≈ 22 µM)	1.56 (≈ 5.5 µM)										
2-n-octyl-5-methyl-1,3,2-benzodithiazole-1-oxide; 2-n-octyl-6-methyl-1,3,2-benzodithiazole-1-oxide [Example 40]											3.12	0.2	3.12	1.56	1.56	1.56	0.78	3.12	0.78	3.12
C#CCN1Sc2ccccc2[S+]1[O-] (stereo not shown) [Example 12, 2-propargyl-1,3,2-benzodithiazole-1-oxide]	1.56 (≈ 7.45 µM)	0.39 (≈ 1.86 µM)	1.56 (≈ 7.45 µM)	0.39 (≈ 1.86 µM)	0.39 (≈ 1.86 µM)	0.78 (≈ 3.73 µM)	0.78 (≈ 3.73 µM)	0.78 (≈ 3.73 µM)	1.56 (≈ 7.45 µM)											
